Target: Pyruvate kinase PKM (Homo sapiens, UniProt P14618)
Test: Activation Assay Measuring In Vitro Activation of Recombinant Human PKM2
Method: Human PKM2 was diluted into Assay Buffer comprising 50 mM imidazole, 50 mM KCl, 7 mM MgCl2, 0.01% Tween20, 0.05% BSA (pH 7.2) to a final concentration of 5 pM. Enzyme-Assay Buffer mix was dispensed into a 384-well shallow-well white-walled plate (PerkinElmer) and Test Compounds added by acoustic dispense (Echo , Labcyte Inc.). […] Kinase-Glo Plus reagent was added to each well and the plates incubated for a further 15 minutes on an orbital shaker in the dark (300 rpm, 26° C.) before luminescence measurement on a plate reader (PHERAstar FSX, BMG Labtech).

Sequence of Pyruvate kinase PKM (P14618 whole entry): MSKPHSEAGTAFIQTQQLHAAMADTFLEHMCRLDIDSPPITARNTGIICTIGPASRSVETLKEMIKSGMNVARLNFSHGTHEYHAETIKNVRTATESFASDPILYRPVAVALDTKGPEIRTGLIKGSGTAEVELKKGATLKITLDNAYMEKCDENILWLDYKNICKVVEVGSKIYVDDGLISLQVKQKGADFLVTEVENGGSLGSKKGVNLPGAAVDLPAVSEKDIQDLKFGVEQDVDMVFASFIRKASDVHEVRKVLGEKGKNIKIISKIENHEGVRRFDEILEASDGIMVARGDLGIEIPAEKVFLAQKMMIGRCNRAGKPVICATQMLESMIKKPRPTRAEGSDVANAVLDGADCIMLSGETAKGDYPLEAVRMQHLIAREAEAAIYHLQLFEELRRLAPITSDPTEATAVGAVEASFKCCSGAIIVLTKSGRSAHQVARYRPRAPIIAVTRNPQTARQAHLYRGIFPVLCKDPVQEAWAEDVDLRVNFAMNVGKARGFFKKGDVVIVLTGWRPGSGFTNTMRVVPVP

EC50: 354 nM
Structure (SMILES): Cn1c2c(c3cnn(Cc4cccc(C(C)(C)O)c4)c(=O)c31)CCN(S(C)(=O)=O)C2 [US20240409542, Example 33]
